{"source": "patent US8481546B2", "about": "“CGRP receptor antagonist” (Bristol-Myers Squibb Company, priority 2010, dated 2013)", "key": {"[1]": {"test_system": "olfactory epithelium (nasal tissues)", "test": "One-week comparative intranasal irritation study in rats (Compound I vs Compound III): nasal histology and tolerability", "format": "in vivo", "details": "for Olfactory Epithelial Atrophy, incidence of severity Marked (number of rats) / Olfactory Epithelial Atrophy, incidence of severity Mild (number of rats) / Olfactory Epithelial Atrophy, incidence of severity Minimal (number of rats) / Olfactory Epithelial Atrophy, incidence of severity Moderate (number of rats) / Olfactory Epithelial Atrophy, incidence of severity None (number of rats): 1 week", "protocol": "This study was conducted to compare potential nasal irritation of Compound I to Compound III when given intranasally to male rats for 1 week. Male rats (10/group) were instilled intranasally with Compound I or Compound III solutions ([…] in 225 mM succinic acid, 0.02% benzalkonium chloride, 1.25% anhydrous dextrose, pH 5.8-6.2) once daily at a dose volume of 100 μL/nostril. Using this dosing paradigm, fixed doses of 5, 15 or 35 mg of test article were delivered daily. As a consequence, dosages normalized to body weight decreased with time as the rats grew. One control group was given succinate vehicle and a sham control group was given saline by intranasal instillation. Parameters evaluated included clinical observations, body weight, food consumption, toxicokinetics, and histological evaluation of nasal tissues."}, "[2]": {"test_system": "CGRP-induced dilation of ex vivo human intracranial arteries", "test": "Schild analysis: inhibition of CGRP concentration-response curve in ex vivo human intracranial artery", "protocol": "To assess functional antagonism against a range of CGRP concentrations, Compound I is pre-incubated with individual artery rings in the tissue bath and then a CGRP concentration-response curve is generated to achieve complete dilation (using multiple agonist and multiple antagonist doses). Higher concentrations of antagonist produce a ‘right-shift’ in the CGRP concentration-response curve, requiring greater concentrations of agonist to overcome the presence of antagonist and achieve full dilation. In short, wire mounted artery rings are pre-incubated with antagonist, then contracted with KCl (to mimic endogenous tone), and followed by addition of increasing concentrations of CGRP to achieve full relaxation.\nEach wire mounted artery ring is pre-incubated for 30 min with a single concentration (0.1-30 nM) of the antagonist Compound I, then contracted with 10 mM KCl (to mimic endogenous tone), followed by addition of increasing concentrations of CGRP to achieve full relaxation. The KCl contraction is allowed to stabilize, such that total antagonist pretreatment time is approximately 45 min prior to application of CGRP."}, "[3]": {"target": "T1, CGRP receptor (CGRP-stimulated cAMP production) (Homo sapiens, UniProt O60894+Q16602)", "T1 construct": "endogenous in cells; host or cells: SK-N-MC human neuroblastoma cells (membrane homogenate or attached whole cells)", "test": "Schild analysis of CGRP-stimulated cAMP production", "format": "cell-based", "protocol": "Schild analysis is used to characterize the nature of the antagonism of Compound I. The dose response of CGRP-stimulated cAMP production is generated either with CGRP alone, or with CGRP in the presence of various concentrations of Compound I. Specifically, dose-dependent cAMP stimulation by CGRP is assayed with or without five different concentrations of Compound I. The concentration of Compound I is plotted on the X-axis against the dose ratio minus 1 on the Y-axis (dose ratio is defined as the EC50 of CGRP in the presence of Compound I divided by the EC50 of CGRP alone). Linear regression is then performed with both X and Y axes log-transformed. […] Kb is the antagonist dissociation constant."}, "[4]": {"target": "T2, CGRP receptor endogenously expressed in SK-N-MC cell membranes (Homo sapiens, UniProt O60894+Q16602)", "T2 construct": "endogenous in cells; host or cells: SK-N-MC human neuroblastoma cells (membrane homogenate or attached whole cells)", "test": "Competition for [125I]CGRP binding (radioligand competition assay)", "details": "15 pM [125I]CGRP, read-out: mean Ki, inhibition of [125I]CGRP binding", "protocol": "SK-N-MC cell membrane homogenate serves as the receptor source. Human neuroblastoma SK-N-MC cells are used for in vitro assays because they endogenously express the CGRP receptor with an identical sequence to the cloned human CGRP receptor (Aiyar et al., 2001). Cells are grown at 37° C. in 5% CO2 in medium consisting of MEM with Earle's salts and L-glutamine supplemented with 10% fetal bovine serum to reach confluence. The cells are harvested by rinsing twice with phosphate-buffered saline and are incubated for 5-10 minutes at 4° C. in hypotonic lysis buffer consisting of 10 mM Tris (pH 7.4) and 5 mM EDTA. The cells are collected and transferred to polypropylene tubes and homogenized using a polytron. Homogenates are centrifuged at 32,000×g for 30 min. The pellets are resuspended in cold hypotonic lysis buffer with 0.1% mammalian protease inhibitor cocktail and assayed for protein concentration. The membrane homogenate is then aliquoted and stored at −80° C. until the day of assay.\nThe ability of Compound I to compete for the radiolabeled ([^125I]CGRP, Amersham Biosciences) endogenous peptide human alpha CGRP (hαCGRP) is measured using a radioligand competition assay. Compound I is first solubilized in and carried through serial dilutions using 100% DMSO. […] Protein bound radioactivity is measured using a gamma scintillation counter. […]"}, "[5]": {"details": "nasal instillation 5 mg (0.357 mg/cm^2) once daily"}, "[6]": {"details": "nasal instillation 15 mg (1.07 mg/cm^2) once daily"}, "[7]": {"details": "nasal instillation 35 mg (2.50 mg/cm^2) once daily"}}}
{"smiles": "Cc1cc(C[C@@H](NC(=O)N2CCC(c3cc4ccccc4[nH]c3=O)CC2)C(=O)N2CCN(C3CCN(C)CC3)CC2)cc2cn[nH]c12", "note": "[Compound I, (R)—N-(3-(7-methyl-1H-indazol-5-yl)-1-(4-(1-methylpiperidin-4-yl)piperazin-1-yl)-1-oxopropan-2-yl)-4-(2-oxo-1,2-dihydroquinolin-3-yl)piperidine-1-carboxamide]", "values": [{"measurement": "tolerability of intranasal administration", "setting": "[1]; male rats, 5, 15 or 35 mg once daily for 1 week", "value": "well tolerated"}, {"measurement": "Olfactory Epithelial Atrophy, incidence of severity Marked (number of rats)", "setting": "[1]; [5]", "value": 0}, {"measurement": "Olfactory Epithelial Atrophy, incidence of severity Mild (number of rats)", "setting": "[1]; [5]", "value": 0}, {"measurement": "Olfactory Epithelial Atrophy, incidence of severity Minimal (number of rats)", "setting": "[1]; [5]", "value": 1}, {"measurement": "Olfactory Epithelial Atrophy, incidence of severity Moderate (number of rats)", "setting": "[1]; [5]", "value": 0}, {"measurement": "Olfactory Epithelial Atrophy, incidence of severity None (number of rats)", "setting": "[1]; [5]", "value": 8}, {"measurement": "Olfactory Epithelial Atrophy, incidence of severity Marked (number of rats)", "setting": "[1]; [6]", "value": 0}, {"measurement": "Olfactory Epithelial Atrophy, incidence of severity Mild (number of rats)", "setting": "[1]; [6]", "value": 2}, {"measurement": "Olfactory Epithelial Atrophy, incidence of severity Minimal (number of rats)", "setting": "[1]; [6]", "value": 6}, {"measurement": "Olfactory Epithelial Atrophy, incidence of severity Moderate (number of rats)", "setting": "[1]; [6]", "value": 0}, {"measurement": "Olfactory Epithelial Atrophy, incidence of severity None (number of rats)", "setting": "[1]; [6]", "value": 1}, {"measurement": "Olfactory Epithelial Atrophy, incidence of severity Marked (number of rats)", "setting": "[1]; [7]", "value": 0}, {"measurement": "Olfactory Epithelial Atrophy, incidence of severity Mild (number of rats)", "setting": "[1]; [7]", "value": 2}, {"measurement": "Olfactory Epithelial Atrophy, incidence of severity Minimal (number of rats)", "setting": "[1]; [7]", "value": 3}, {"measurement": "Olfactory Epithelial Atrophy, incidence of severity Moderate (number of rats)", "setting": "[1]; [7]", "value": 0}, {"measurement": "Olfactory Epithelial Atrophy, incidence of severity None (number of rats)", "setting": "[1]; [7]", "value": 4}, {"measurement": "Kb", "setting": "[2]", "value": 0.091, "unit": "nM"}, {"measurement": "Schild analysis mean slope", "setting": "[3]", "value": "1.02±0.04"}, {"measurement": "Kb", "setting": "[3]; Schild analysis, read-out: mean antagonist dissociation constant Kb", "value": "0.0215 ± 0.0094", "unit": "nM"}, {"measurement": "Ki", "setting": "[4]", "value": 0.0227, "unit": "nM"}]}
